The results in this text go back to patent US8859580B2 (Boehringer Ingelheim International GmbH, priority 2007, dated 2014).

Read-outs that look alike come from different tables or passages of the source.

As a reminder, the IC50 is the concentration that inhibits the measured activity by half.

This test deals with T1, 11β-HSD1 (Homo sapiens, UniProt P28845).
T1 construct: detecting cortisol generated from cortisterone by human liver microsomes; from tissue; host or cells: human liver microsomes
T1 sequence (P28845 whole entry): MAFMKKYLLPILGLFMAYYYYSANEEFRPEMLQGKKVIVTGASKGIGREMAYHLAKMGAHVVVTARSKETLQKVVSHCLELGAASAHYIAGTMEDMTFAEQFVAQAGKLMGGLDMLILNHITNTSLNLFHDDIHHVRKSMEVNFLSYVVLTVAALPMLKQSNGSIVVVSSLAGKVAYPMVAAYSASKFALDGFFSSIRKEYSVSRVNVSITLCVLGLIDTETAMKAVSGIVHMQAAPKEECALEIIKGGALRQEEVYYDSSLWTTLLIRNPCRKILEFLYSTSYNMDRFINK
As to the kind of experiment: In vitro inhibition of 11β-HSD1, HTRF detection of cortisol generated from cortisone by human liver microsomes. In kind it is biochemical. The following applies: 1 hour at 37° C., pH 6.0, NADPH 200 μM, cortisone 80 nM, inhibition relative to carbenoxolone signal. The method in brief: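 Cortisol formed from cortisone by human liver microsomes quantified by competitive HTRF immunoassay (XL665-cortisol, Eu-cryptate anti-cortisol antibody), 2 h detection, Em665/Em615 ratio converted via cortisol calibration curve. Percent inhibition relative to carbenoxolone signal; IC50 from curves.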
A general note: TR-FRET usually uses a lanthanide donor and a delayed reading to cut background.

As to `CCOC(=O)c1ccc2c(c1)[C@]1(C)CCN(C(=O)c3ccc4nc[nH]c4c3)[C@H](C2)[C@H]1C` [Example 91, (2R,6R,11S)-3-(3H-Benzoimidazole-5-carbonyl)-6,11-dimethyl-1,2,3,4,5,6-hexahydro-2,6-methano-benzo[d]azocine-8-carboxylic acid ethyl ester], where the note is “11β-HSD IC50 (nM)”, the 50% inhibitory concentration (IC50) turned out to be 711 nM.

On to `CC12CCN(C(=O)c3ccc4ncsc4c3)C(Cc3ccc(O)cc31)C2` (stereo not shown) [Example 92, benzothiazol-6-yl-(8-hydroxy-6-methyl-1,2,5,6-tetrahydro-4H-2,6-methano-benzo[d]azocin-3-yl)-methanone], for which the IC50 (11β-HSD IC50 (nM)) came out at 1110 nM. The compound `CC1(C)[C@H]2Cc3c(C#N)cccc3[C@]1(C)CCN2C(=O)c1ccc2nc[nH]c2c1` [Example 93, (2R,6S)-3-(3H-Benzoimidazole-5-carbonyl)-6,11,11-trimethyl-1,2,3,4,5,6-hexahydro-2,6-methano-benzo[d]azocine-10-carbonitrile] came in with a concentration for half-maximal inhibition (IC50) (11β-HSD IC50 (nM)) of 2060 nM. The same measure, in the same setting: for `COC(=O)C12CCN(C(=O)c3ccc4ncsc4c3)C(Cc3ccc(O)cc31)C2` (stereo not shown) [Example 94, 3-(Benzothiazole-6-carbonyl)-8-hydroxy-2,3,4,5-tetrahydro-1H-2,6-methano-benzo[d]azocine-6-carboxylic acid methyl ester] the value was 6720 nM; for `CCOC(=O)c1cccc2c1C[C@H]1N(C(=O)c3ccc4nc[nH]c4c3)CC[C@]2(C)C1(C)C` [Example 95, (2R,6S)-3-(1H-Benzoimidazole-5-carbonyl)-6,11,11-trimethyl-1,2,3,4,5,6-hexahydro-2,6-methano-benzo[d]azocine-10-carboxylic acid ethyl ester], 3840 nM.

Compound `CC12CCN(C(=O)c3ccc4nc[nH]c4c3)C(Cc3cc(C#N)ccc31)C2(C)C` (stereo not shown) [Example 96, 3-(1H-Benzoimidazole-5-carbonyl)-6,11,11-trimethyl-1,2,3,4,5,6-hexahydro-2,6-methano-benzo[d]azocine-9-carbonitrile] came in with a 50% inhibitory concentration (IC50) (11β-HSD IC50 (nM)) of 95 nM. With `CCOC(=O)c1ccc2c(c1)CC1N(C(=O)c3ccc4nc[nH]c4c3)CCC2(C)C1(C)C` (stereo not shown) [Example 97, 3-(1H-Benzoimidazole-5-carbonyl)-6,11,11-trimethyl-1,2,3,4,5,6-hexahydro-2,6-methano-benzo[d]azocine-9-carboxylic acid ethyl ester], for the setting “11β-HSD IC50 (nM)”, inhibition was half-maximal at 1130 nM (IC50). Turning to `CC12CCN(C(=O)c3ccc4nc[nH]c4c3)C(CCc3ccccc31)C2` (stereo not shown) [Example 98, (3H-Benzoimidazol-5-yl)-(1-methyl-11-aza-tricyclo[8.3.1.0*2,7*]tetradeca-2,4,6-trien-11-yl)-methanone], the IC50 (read-out: 11β-HSD IC50) is 125 nM. Same read-out and setting: for `COc1ccc2c(c1)C1CCN(C(=O)c3ccc4nc[nH]c4c3)C2C1` (stereo not shown) [Example 99, (3H-Benzoimidazol-5-yl)-(4-methoxy-9-aza-tricyclo[6.3.1.0*2,7*]dodeca-2,4,6-trien-9-yl)-methanone] the value was 285 nM. For the compound `O=C(c1ccc2nc[nH]c2c1)N1CCC2CC1c1ccc(O)cc12` (stereo not shown) [Example 100, (3H-Benzoimidazol-5-yl)-(4-hydroxy-9-aza-tricyclo[6.3.1.0*2,7*]dodeca-2,4,6-trien-9-yl)-methanone], the IC50 (read-out: 11β-HSD IC50) amounted to 564 nM. Regarding `CC1(C)[C@H]2Cc3cc(-c4ccccc4)ccc3[C@]1(C)CCN2C(=O)c1ccc2nc[nH]c2c1` [Example 102, (3H-Benzoimidazol-5-yl)-[(2R,6S)-6,11,11-trimethyl-9-phenyl-1,2,5,6-tetrahydro-4H-2,6-methano-benzo[d]azocin-3-yl]-methanone], the IC50 (11β-HSD IC50 (nM)) was 1460 nM.

The compound `COC12CCN(C(=O)c3ccc4nc[nH]c4c3)C(Cc3ccccc31)C2(C)C` (stereo not shown) [Example 103, (3H-Benzoimidazol-5-yl)-(6-methoxy-11,11-dimethyl-1,2,5,6-tetrahydro-4H-2,6-methano-benzo[d]azocin-3-yl)-methanone] showed an IC50 (11β-HSD IC50 (nM)) of 86 nM. The same measure, in the same setting: for `COc1cccc2c1C[C@H]1N(C(=O)c3ccoc3C)CC[C@]2(C)C1(C)C` [Example 104, [(2R,6S)-10-Methoxy-6,11,11-trimethyl-l,2,5,6-tetrahydro-4H-2,6-methano-benzo[d]azocin-3-yl]-(2-methyl-furan-3-yl)-methanone] the value was 1390 nM; for `CC1C2Cc3ccc(O)cc3C1(C)CCN2C(=O)c1ccccc1` (stereo not shown) [Example 105, (8-Hydroxy-6,11-dimethyl-1,2,5,6-tetrahydro-4H-2,6-methano-benzo[d]azocin-3-yl)-phenyl-methanone], 1330 nM; for `Cc1ccccc1C(=O)N1CCC2(C)c3cc(O)ccc3CC1C2C` (stereo not shown) [Example 106, (8-Hydroxy-6,11-dimethyl-1,2,5,6-tetrahydro-4H-2,6-methano-benzo[d]azocin-3-yl)-o-tolyl-methanone], 2960 nM. `COc1ccc2c(c1)[C@]1(C)CCN(C(=O)c3cccnc3)[C@H](C2)[C@@H]1C` [Example 107, [(2R,6R,11R)-8-Methoxy-6,11-dimethyl-1,2,5,6-tetrahydro-4H-2,6-methano-benzo[d]azocin-3-yl]-pyridin-3-yl-methanone] returned a half-inhibitory concentration (IC50) (11β-HSD IC50 (nM)) of 2550 nM. On the same count and under the same terms, for `COc1ccc2c(c1)[C@]1(C)CCN(C(=O)c3ccccc3[N+](=O)[O-])[C@H](C2)[C@@H]1C` [Example 108, [(2R,6R,11R)-8-Methoxy-6,11-dimethyl-1,2,5,6-tetrahydro-4H-2,6-methano-benzo[d]azocin-3-yl]-(2-nitro-phenyl)-methanone] the value was 140 nM. `COc1ccc2c(c1)[C@]1(C)CCN(C(=O)c3ccccc3C)[C@H](C2)[C@@H]1C` [Example 109, [(2R,6R,11R)-8-Methoxy-6,11-dimethyl-1,2,5,6-tetrahydro-4H-2,6-methano-benzo[d]azocin-3-yl]-o-tolyl-methanone] came in with an IC50 (11β-HSD IC50 (nM)) of 1460 nM. Still for that read-out and setting: for `COc1ccc2c(c1)[C@]1(C)CCN(C(=O)c3occc3C)[C@H](C2)[C@@H]1C` [Example 111, [(2R,6R,11R)-8-Methoxy-6,11-dimethyl-1,2,5,6-tetrahydro-4H-2,6-methano-benzo[d]azocin-3-yl]-(3-methyl-furan-2-yl)-methanone] the value was 1600 nM. Consider `Cc1ccoc1C(=O)N1CC[C@@]2(C)c3cc(O)ccc3C[C@@H]1[C@@H]2C` [Example 112, [(2R,6R,11R)-8-Hydroxy-6,11-dimethyl-1,2,5,6-tetrahydro-4H-2,6-methano-benzo[d]azocin-3-yl]-(3-methyl-furan-2-yl)-methanone], for which, under “11β-HSD IC50 (nM)”, half-maximal inhibition (IC50) required 1230 nM. Same read-out and setting: for `C[C@H]1[C@H]2Cc3ccc(O)cc3[C@]1(C)CCN2C(=O)c1ccco1` [Example 113, Furan-2-yl-[(2R,6R,11R)-8-hydroxy-6,11-dimethyl-1,2,5,6-tetrahydro-4H-2,6-methano-benzo[d]azocin-3-yl]-methanone] the value was 3630 nM. On to `C[C@H]1[C@H]2Cc3ccc(O)cc3[C@]1(C)CCN2C(=O)c1ccccc1[N+](=O)[O-]` [Example 115, [(2R,6R,11R)-8-Hydroxy-6,11-dimethyl-1,2,5,6-tetrahydro-4H-2,6-methano-benzo[d]azocin-3-yl]-(2-nitro-phenyl)-methanone], for which the IC50 (11β-HSD IC50 (nM)) came to 1590 nM. The compound `CC1(C)[C@H]2Cc3c(O)cccc3[C@]1(C)CCN2C(=O)c1cc2ccccc2[nH]1` [Example 116, [(2R,6S)-10-Hydroxy-6,11,11-trimethyl-1,2,5,6-tetrahydro-4H-2,6-methano-benzo[d]azocin-3-yl]-(1H-indol-2-yl)-methanone] registered a concentration for half-maximal inhibition (IC50) (11β-HSD IC50 (nM)) of 3850 nM.

`CC1(C)[C@H]2Cc3c(O)cccc3[C@]1(C)CCN2C(=O)c1ccc(CN)cc1` [Example 117, (4-Aminomethyl-phenyl)-[(2R,6S)-10-hydroxy-6,11,11-trimethyl-1,2,5,6-tetrahydro-4H-2,6-methano-benzo[d]azocin-3-yl]-methanone] registered a 50% inhibitory concentration (IC50) (11β-HSD IC50 (nM)) of 1420 nM. Still for that read-out and setting: for `CC1(C)[C@H]2Cc3c(O)cccc3[C@]1(C)CCN2C(=O)c1c[nH]c2ccccc12` [Example 118, [(2R,6S)-10-Hydroxy-6,11,11-trimethyl-1,2,5,6-tetrahydro-4H-2,6-methano-benzo[d]azocin-3-yl]-(1H-indol-3-yl)-methanone] the value was 72 nM; for `CCN(CC)Cc1ccc(C(=O)N2CC[C@@]3(C)c4cccc(O)c4C[C@@H]2C3(C)C)cc1` [Example 119, (4-Diethylaminomethyl-phenyl)-[(2R,6S)-10-hydroxy-6,11,11-trimethyl-1,2,5,6-tetrahydro-4H-2,6-methano-benzo[d]azocin-3-yl]-methanone], 1550 nM; for `CC1(C)[C@H]2Cc3c(O)cccc3[C@]1(C)CCN2C(=O)c1ccc(CN2CCCC2)cc1` [Example 120, [(2R,6S)-10-Hydroxy-6,11,11-trimethyl-1,2,5,6-tetrahydro-4H-2,6-methano-benzo[d]azocin-3-yl]-(4-pyrrolidin-1-ylmethyl-phenyl)-methanone], 3840 nM. Take `Cc1noc(C)c1C(=O)N1CC[C@@]2(C)c3cccc(O)c3C[C@@H]1C2(C)C` [Example 121]: under “11β-HSD IC50 (nM)”, the half-maximal inhibitory concentration (IC50) came to 4120 nM.

As for `COc1cc(C(=O)N2CC[C@@]3(C)c4cccc(O)c4C[C@@H]2C3(C)C)ccc1CN1CCCC1=O` [Example 122, 1-{4-[(2R,6S)-10-Hydroxy-6,11,11-trimethyl-1,2,5,6-tetrahydro-4H-2,6-methano-benzo[d]azocine-3-carbonyl]-2-methoxy-benzyl}-pyrrolidin-2-one], the 50% inhibitory concentration (IC50) (11β-HSD IC50 (nM)) was found to be 818 nM. For the setting “11β-HSD IC50 (nM)”, `CC1(C)[C@H]2Cc3c(O)cccc3[C@]1(C)CCN2C(=O)c1ccc(Cn2ccnc2)cc1` [Example 123, [(2R,6S)-10-Hydroxy-6,11,11-trimethyl-1,2,5,6-tetrahydro-4H-2,6-methano-benzo[d]azocin-3-yl]-(4-imidazol-1-ylmethyl-phenyl)-methanone] returned an IC50 of 297 nM.

As for `Cc1cc(C(=O)N2CC[C@@]3(C)c4cccc(O)c4C[C@@H]2C3(C)C)nn1C` [Example 124, (1,5-Dimethyl-1H-pyrazol-3-yl)-[(2R,6S)-10-hydroxy-6,11,11-trimethyl-1,2,5,6-tetrahydro-4H-2,6-methano-benzo[d]azocin-3-yl]-methanone], the IC50 (11β-HSD IC50 (nM)) stood at 658 nM.
